According to paper PMC7377239, “Cardiovascular Effects of Polychlorinated Biphenyls and Their Major Metabolites” (Environmental Health Perspectives, 2020):
Like-named read-outs stand apart in the source and are kept apart here.

Tests used:
[1] = system: iCell endothelial cells (human iPSC-derived ECs); assay: High-content imaging cytotoxicity in iCell endothelial cells, 24 h; type: cell-based; conditions: Homo sapiens, Endothelial cell, iPSC-EC, 24 hr; for viability at 0.1 µM / activity at 0.1 µM: 0.10 µM; for minimal effective concentration: top concentration 100.00 µM
Procedure, shortened: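 Readouts were vehicle-normalised and fitted to a four-parameter logistic model. POD was set at one SD beyond 0.5% DMSO control means, and 100 µM was assigned when no response was seen. Cells were monolayers of iCell endothelial cells imaged after 24 h compound exposure using nuclear, mitochondrial and calcein dyes.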

[2] = system: HUVECs; assay: High-content imaging cytotoxicity in HUVECs, 24 h; type: cell-based, human; conditions: Homo sapiens, HUVEC, 24 h, HUVECs; for viability at 0.01 µM / activity at 0.01 µM / viability at 0.1 µM / activity at 0.1 µM / viability at 1 µM / activity at 1 µM / viability at 10 µM / activity at 10 µM / viability at 100 µM / activity at 100 µM: 0.00 µM = 100.00; for viability at 0.1 µM / activity at 0.1 µM: 0.10 µM; for minimal effective concentration: top concentration 100.00 µM
Procedure, shortened: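 Confluent HUVEC monolayers, passages 1–5, received test chemicals for 24 h. Cytotoxicity was scored from triple-stain high-content images, with PODs defined by a one-SD deviation from 0.5% DMSO vehicle controls.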

[3] = 0.00 µM control = 100.00, read-out: endo.cyto.24hr
[4] = 0.00 µM control = 100.00, read-out: endo.mito.24hr
[5] = 0.00 µM control = 100.00, read-out: endo.mitoint.24hr
[6] = 0.00 µM control = 100.00, read-out: endo.nma.24hr
[7] = 0.00 µM control = 100.00, read-out: endo.tc.24hrs
[8] = 24 hr, read-out: huvec.cyto.24hr
[9] = 24 hr, read-out: huvec.mito.24hr
[10] = 24 hr, read-out: huvec.mitoint.24hr
[11] = 24 hr, read-out: huvec.nma.24hr
[12] = 24 hrs, read-out: huvec.tc.24hrs

## Oc1cc(Cl)c(-c2cc(Cl)ccc2Cl)cc1Cl [4-OH PCB52]
[1]; [3]
  viability at 0.01 µM: 96.8%
  viability at 0.1 µM: 94.9%
  viability at 1 µM: 101%
  viability at 10 µM: 98%
  viability at 100 µM: 42.3%
[1]; [4]
  activity at 0.01 µM: 96.3%
  activity at 0.1 µM: 94.5%
  activity at 1 µM: 101%
  activity at 10 µM: 98%
  activity at 100 µM: 39.7%
[1]; [5]
  activity at 0.01 µM: 90.5%
  activity at 0.1 µM: 89.8%
  activity at 1 µM: 88.2%
  activity at 10 µM: 98.3%
  activity at 100 µM: 51.4%
[1]; [6]
  activity at 0.01 µM: 104%
  activity at 0.1 µM: 104%
  activity at 1 µM: 103%
  activity at 10 µM: 103%
  activity at 100 µM: 89.3%
[1]; [7]
  viability at 0.01 µM: 96.8%
  viability at 0.1 µM: 94.9%
  viability at 1 µM: 101%
  viability at 10 µM: 98%
  viability at 100 µM: 49.3%
[1]; read-out: endo.cyto.24hr POD
  minimal effective concentration: 13.2 µM
[1]; read-out: endo.mito.24hr POD
  minimal effective concentration: 13.2 µM
[1]; read-out: endo.mitoint.24hr POD
  minimal effective concentration: 43.8 µM
[1]; read-out: endo.nma.24hr POD
  minimal effective concentration: 63.5 µM
[1]; read-out: endo.tc.24hrs POD
  minimal effective concentration: 16.6 µM
[2]; [8]
  viability at 0.01 µM: 94.4%
  viability at 0.1 µM: 120%
  viability at 1 µM: 93.9%
  viability at 10 µM: 46.9%
  viability at 100 µM: 72%
[2]; [9]
  activity at 0.01 µM: 93.5%
  activity at 0.1 µM: 118%
  activity at 1 µM: 93.9%
  activity at 10 µM: 33.2%
  activity at 100 µM: 0.65%
[2]; [10]
  activity at 0.01 µM: 103%
  activity at 0.1 µM: 104%
  activity at 1 µM: 111%
  activity at 10 µM: 15.3%
  activity at 100 µM: 5.52%
[2]; [11]
  activity at 0.01 µM: 98.9%
  activity at 0.1 µM: 94.5%
  activity at 1 µM: 98%
  activity at 10 µM: 61.6%
  activity at 100 µM: 119%
[2]; 24 hr, read-out: huvec.cyto.24hr POD
  minimal effective concentration: 1 µM
[2]; 24 hr, read-out: huvec.mito.24hr POD
  minimal effective concentration: 1.1 µM
[2]; 24 hr, read-out: huvec.mitoint.24hr POD
  minimal effective concentration: 2.32 µM
[2]; 24 hr, read-out: huvec.nma.24hr POD
  minimal effective concentration: 100 µM
[2]; [12]
  viability at 0.01 µM: 94.4%
  viability at 0.1 µM: 120%
  viability at 1 µM: 93.9%
  viability at 10 µM: 46.9%
  viability at 100 µM: 77.5%
[2]; 24 hrs, read-out: huvec.tc.24hrs POD
  minimal effective concentration: 1 µM
